In brackets after ≈: the same amount, converted by molar mass.
Key:
Micrococcus luteus [1] = assay: Antibacterial activity against Micrococcus luteus MTCC 106 measured after 24 hrs by NCCL protocol based broth dilution method; assay type: functional; details: MTCC 106, 24 h
Klebsiella pneumoniae [2] = assay: Antibacterial activity against Klebsiella pneumoniae MTCC 3384 measured after 24 hrs by NCCL protocol based broth dilution method; assay type: functional; details: MTCC 3384, 24 h
Salmonella paratyphi [3] = assay: Antibacterial activity against Salmonella paratyphi assessed as zone of inhibition at 100 ug/well measured after 24 hrs by agar well diffusion method; assay type: functional, Salmonella enterica subsp. enterica serovar Paratyphi A; details: Salmonella enterica, read-out: DIZ
Staphylococcus aureus [4] = assay: Antibacterial activity against Staphylococcus aureus MTCC 3160 measured after 24 hrs by NCCL protocol based broth dilution method; assay type: functional; details: MTCC 3160, 24 h
Staphylococcus aureus [5] = assay: Antibacterial activity against Staphylococcus aureus MTCC 3160 assessed as zone of inhibition at 100 ug/well measured after 24 hrs by agar well diffusion method; assay type: functional; details: MTCC 3160, 24 h, read-out: DIZ
Micrococcus luteus [6] = assay: Antibacterial activity against Micrococcus luteus MTCC 106 assessed as zone of inhibition at 100 ug/well measured after 24 hrs by agar well diffusion method; assay type: functional; details: MTCC 106, 24 h, read-out: DIZ
Salmonella typhi [7] = assay: Antibacterial activity against Salmonella typhi assessed as zone of inhibition at 100 ug/well measured after 24 hrs by agar well diffusion method; assay type: functional, Salmonella enterica subsp. enterica serovar Typhi; details: Salmonella enterica, read-out: DIZ
Salmonella typhi [8] = assay: Antibacterial activity against Salmonella typhi measured after 24 hrs by NCCL protocol based broth dilution method; assay type: functional, Salmonella enterica subsp. enterica serovar Typhi; details: Salmonella enterica
Streptococcus mutans [9] = assay: Antibacterial activity against Streptococcus mutans MTCC 497 measured after 24 hrs by NCCL protocol based broth dilution method; assay type: functional; details: MTCC 497, 24 h
Aspergillus fumigatus [10] = assay: Antifungal activity against Aspergillus fumigatus MTCC 343 measured after 48 hrs by NCCL protocol based broth dilution method; assay type: functional; details: MTCC 343, 48 h
Streptococcus mutans [11] = assay: Antibacterial activity against Streptococcus mutans MTCC 497 assessed as zone of inhibition at 100 ug/well measured after 24 hrs by agar well diffusion method; assay type: functional; details: MTCC 497, 24 h, read-out: DIZ
Aspergillus fumigatus [12] = assay: Antifungal activity against Aspergillus fumigatus MTCC 343 assessed as zone of inhibition at 100 ug/well measured after 48 hrs by agar well diffusion method; assay type: functional; details: MTCC 343, 48 h, read-out: DIZ
Candida albicans [13] = assay: Antifungal activity against Candida albicans MTCC 3017 measured after 48 hrs by NCCL protocol based broth dilution method; assay type: functional; details: MTCC 3017, 48 h
Salmonella paratyphi [14] = assay: Antibacterial activity against Salmonella paratyphi measured after 24 hrs by NCCL protocol based broth dilution method; assay type: functional, Salmonella enterica subsp. enterica serovar Paratyphi A; details: Salmonella enterica
Candida albicans [15] = assay: Antifungal activity against Candida albicans MTCC 3017 assessed as zone of inhibition at 100 ug/well measured after 48 hrs by agar well diffusion method; assay type: functional; details: MTCC 3017, 48 h, read-out: DIZ
Klebsiella pneumoniae [16] = assay: Antibacterial activity against Klebsiella pneumoniae MTCC 3384 assessed as zone of inhibition at 100 ug/well measured after 24 hrs by agar well diffusion method; assay type: functional; details: MTCC 3384, 24 h, read-out: DIZ

In the case of `CC1(C)O[C@H]2O[C@@H]3COB(c4ccccc4C=O)O[C@@H]3[C@H]2O1`, the MIC (Micrococcus luteus [1]) is reported as 62.5 µg/mL (≈ 206 µM), the MIC (Klebsiella pneumoniae [2]) is reported as 15.6 µg/mL (≈ 51.4 µM) and the zone of inhibition at 100 µg/disc (Salmonella paratyphi [3]) is reported as 21 mm. The MIC (Staphylococcus aureus [4]) was 62.5 µg/mL (≈ 206 µM), the zone of inhibition at 100 µg/disc (Staphylococcus aureus [5]) was 20 mm and the zone of inhibition at 100 µg/disc (Micrococcus luteus [6]) was 18 mm. For the same molecule, the zone of inhibition at 100 µg/disc (Salmonella typhi [7]) was 26 mm, the MIC (Salmonella typhi [8]) was 31.2 µg/mL (≈ 103 µM) and the MIC (Streptococcus mutans [9]) was 62.5 µg/mL (≈ 206 µM). For the same molecule, the MIC (Aspergillus fumigatus [10]) was 31.2 µg/mL (≈ 103 µM), the zone of inhibition at 100 µg/disc (Streptococcus mutans [11]) was 20 mm and the zone of inhibition at 100 µg/disc (Aspergillus fumigatus [12]) was 25 mm. It also gave an MIC (Candida albicans [13]) of 31.2 µg/mL (≈ 103 µM), an MIC (Salmonella paratyphi [14]) of 31.2 µg/mL (≈ 103 µM) and a zone of inhibition at 100 µg/disc (Candida albicans [15]) of 26 mm. For the same molecule, the zone of inhibition at 100 µg/disc (Klebsiella pneumoniae [16]) was 27 mm.

Work on `CC1(C)O[C@H]2O[C@@H]3COB(c4cccc(/N=C/c5ccccc5O)c4)O[C@@H]3[C@H]2O1` yielded an MIC (Micrococcus luteus [1]) of 62.5 µg/mL (≈ 158 µM), an MIC (Klebsiella pneumoniae [2]) of 125 µg/mL (≈ 316 µM) and a zone of inhibition at 100 µg/disc (Salmonella paratyphi [3]) of 13 mm. For the same molecule, the MIC (Staphylococcus aureus [4]) was 250 µg/mL (≈ 633 µM), the zone of inhibition at 100 µg/disc (Staphylococcus aureus [5]) was 13 mm and the zone of inhibition at 100 µg/disc (Micrococcus luteus [6]) was 22 mm. The zone of inhibition at 100 µg/disc (Salmonella typhi [7]) was 22 mm, the MIC (Salmonella typhi [8]) was 62.5 µg/mL (≈ 158 µM) and the MIC (Streptococcus mutans [9]) was 62.5 µg/mL (≈ 158 µM). The MIC (Aspergillus fumigatus [10]) was 500 µg/mL (≈ 1270 µM), the zone of inhibition at 100 µg/disc (Streptococcus mutans [11]) was 20 mm and the zone of inhibition at 100 µg/disc (Aspergillus fumigatus [12]) was 0 mm. It also gave an MIC (Candida albicans [13]) of 125 µg/mL (≈ 316 µM), an MIC (Salmonella paratyphi [14]) of 250 µg/mL (≈ 633 µM) and a zone of inhibition at 100 µg/disc (Candida albicans [15]) of 14 mm. For the same molecule, the zone of inhibition at 100 µg/disc (Klebsiella pneumoniae [16]) was 16 mm.

From ChEMBL document CHEMBL3822364, “Synthesis, characterization and antimicrobial activity of novel Schiff base tethered boronate esters of 1,2-O-isopropylidene-α-d-xylofuranose” (2016)
